Drawing on PubChem BioAssay (NCI), this text covers GI50 and TGI for nine compounds.

Structures are written as SMILES.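 Five concentrations, 48 hours, 96-well plates. GI50 = concentration required for 50% inhibition of growth. At the TGI there is no net growth.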

Among the test systems are A498 renal; A549 NSCLC; CCRF-CEM leukemia; HOP-62 NSCLC; K-562 leukemia; M14 melanoma; NCI-H226 lung; OVCAR-3 ovarian; SN12C renal; SNB-19 CNS.
Common to all, as to test: growth of human tumour cells (NCI), 48 h

Consider `COc1cc(C2C3=C(COC3=O)Nc3cc4c(cc32)OCO4)cc2c1OCO2` (centres undefined), for which the GI50 with A498 renal is 0.0276 µM; in the assay with A549 NSCLC, 0.117 µM; in the assay on CCRF-CEM leukemia it was 0.0698 µM; in the assay on HOP-62 NSCLC, 0.0762 µM; in the assay with K-562 leukemia it was 0.034 µM; with M14 melanoma it was 0.03 µM. Moreover, the GI50 in the assay with NCI-H226 lung is 0.0827 µM; in the assay with OVCAR-3 ovarian, 0.0267 µM; with SN12C renal, 0.154 µM; in the assay with SNB-19 CNS, 0.143 µM. In addition, the TGI in the assay on A498 renal is 0.12 µM; in the assay on A549 NSCLC, greater than 100 µM; with CCRF-CEM leukemia it was greater than 100 µM; in the assay with HOP-62 NSCLC, greater than 87.2 µM; in the assay with K-562 leukemia it was greater than 100 µM; in the assay with M14 melanoma, 0.0878 µM. In addition, the TGI with OVCAR-3 ovarian was 0.0695 µM; in the assay with SN12C renal, greater than 100 µM; in the assay with SNB-19 CNS, greater than 100 µM.
Regarding `CCc1ncnc2cc(OCC3CO3)c(OC)cc12` (centres undefined), the TGI was 58.1 µM with A498 renal; greater than 100 µM with A549 NSCLC; 27.2 µM in the assay with CCRF-CEM leukemia; 38.7 µM in the assay on HOP-62 NSCLC; greater than 80.3 µM in the assay with K-562 leukemia; 23.8 µM with M14 melanoma. The TGI in the assay with NCI-H226 lung is greater than 100 µM; in the assay on OVCAR-3 ovarian, greater than 100 µM; in the assay with SN12C renal, 16.7 µM; in the assay with SNB-19 CNS, greater than 100 µM.
As for `CCN(CC)c1ccc(/C=C/C=C(/C#N)C(N)=S)cc1`, the GI50 is 10.9 µM with A498 renal; 5.94 µM in the assay on A549 NSCLC; 3.16 µM in the assay with CCRF-CEM leukemia; 5.37 µM in the assay with HOP-62 NSCLC; 2.83 µM in the assay with K-562 leukemia; 2.53 µM in the assay with M14 melanoma. Moreover, the GI50 is 5.27 µM with NCI-H226 lung, 10.9 µM in the assay on OVCAR-3 ovarian, 7.56 µM with SN12C renal and 40.4 µM in the assay with SNB-19 CNS. The TGI in the assay on A498 renal was 58.9 µM; with A549 NSCLC, greater than 100 µM; with CCRF-CEM leukemia, 71.8 µM; with HOP-62 NSCLC it was 32.3 µM; with K-562 leukemia, 18.9 µM; in the assay with M14 melanoma it was 9.33 µM. Moreover, the TGI in the assay with NCI-H226 lung was 30.9 µM; with OVCAR-3 ovarian, greater than 100 µM; in the assay on SN12C renal it was 75.2 µM; with SNB-19 CNS, greater than 100 µM.
Consider `COc1cc2c(cc1O)C(c1cc(O)c(O)c(OC)c1)C(O)(C(=O)O)C(CO)C2O` (centres undefined), for which the TGI in the assay with A498 renal is greater than 100 µM; with A549 NSCLC, greater than 100 µM; with CCRF-CEM leukemia, 22.7 µM; with HOP-62 NSCLC it was greater than 100 µM; with K-562 leukemia it was greater than 100 µM; with M14 melanoma, greater than 100 µM. The TGI is greater than 100 µM in the assay with NCI-H226 lung, greater than 100 µM with OVCAR-3 ovarian, 32.6 µM in the assay with SN12C renal and greater than 100 µM with SNB-19 CNS.
Take `Oc1ccccc1C=Nc1ccccc1N=Cc1ccccc1O.[Cu+2]`: the GI50 in the assay on A498 renal was 7.66 µM; with A549 NSCLC, 5.88 µM; with CCRF-CEM leukemia, 4.16 µM; in the assay with HOP-62 NSCLC, 2.99 µM; in the assay on K-562 leukemia, 4.44 µM; in the assay on M14 melanoma it was 4.33 µM. Besides, the GI50 was 3.72 µM with NCI-H226 lung, 3.35 µM in the assay on OVCAR-3 ovarian, 4.84 µM with SN12C renal and 13 µM in the assay with SNB-19 CNS. For the same compound, the TGI in the assay on A498 renal was 20.8 µM; in the assay on A549 NSCLC, 18.2 µM; in the assay with CCRF-CEM leukemia, greater than 100 µM; with HOP-62 NSCLC, 11.7 µM; in the assay on K-562 leukemia, greater than 100 µM; with M14 melanoma, 16.4 µM. Besides, the TGI in the assay with NCI-H226 lung was determined as 16.3 µM; in the assay with OVCAR-3 ovarian, 14.4 µM; with SN12C renal it was 18.7 µM; in the assay with SNB-19 CNS it was 26.3 µM.
`NC(CO)C(=O)NCC(=O)O` (centres undefined): the TGI in the assay on A498 renal, in the assay with A549 NSCLC, in the assay with CCRF-CEM leukemia, with HOP-62 NSCLC, with K-562 leukemia and in the assay on M14 melanoma was greater than 100 µM in each case. In addition, the TGI with NCI-H226 lung, with OVCAR-3 ovarian, with SN12C renal and with SNB-19 CNS was greater than 100 µM each time.
Take `CCN(Cc1cccc(F)c1F)c1ccc(CO)c(Cl)c1`: the GI50 in the assay with A498 renal was 0.0217 µM; with A549 NSCLC it was 1.54 µM; in the assay with CCRF-CEM leukemia, 20.1 µM; in the assay with HOP-62 NSCLC, 1.82 µM; in the assay with K-562 leukemia, 0.683 µM; in the assay with M14 melanoma, 17.9 µM. Besides, the GI50 in the assay on NCI-H226 lung is 0.0318 µM; in the assay with OVCAR-3 ovarian it was 0.304 µM; in the assay on SN12C renal it was 13.4 µM; in the assay with SNB-19 CNS, 17 µM. For the same compound, the TGI is 0.102 µM in the assay with A498 renal; 24.2 µM with A549 NSCLC; 69.1 µM in the assay with CCRF-CEM leukemia; 24.6 µM in the assay on HOP-62 NSCLC; 29.3 µM with K-562 leukemia; 35.1 µM in the assay on M14 melanoma. Further, the TGI in the assay on NCI-H226 lung is 0.141 µM; in the assay on OVCAR-3 ovarian, 1.28 µM; in the assay with SN12C renal, 30.2 µM; in the assay with SNB-19 CNS it was greater than 58.6 µM.
As for `Cn1c2ccccc2c2nnc(NNCc3ccccn3)nc21`, the GI50 in the assay with A498 renal was 0.415 µM; with A549 NSCLC it was 0.414 µM; in the assay with CCRF-CEM leukemia it was 0.357 µM; in the assay with HOP-62 NSCLC it was 0.324 µM; with K-562 leukemia it was 0.363 µM; in the assay on M14 melanoma, 0.246 µM. For the same compound, the GI50 was 0.324 µM with NCI-H226 lung, 0.325 µM with OVCAR-3 ovarian, 0.462 µM in the assay with SN12C renal and 0.597 µM with SNB-19 CNS. The TGI stood at 12.3 µM in the assay with A498 renal; 16.4 µM in the assay on A549 NSCLC; 12.7 µM in the assay with CCRF-CEM leukemia; 4.64 µM in the assay on HOP-62 NSCLC; 13.7 µM with K-562 leukemia; 0.738 µM in the assay on M14 melanoma. Besides, the TGI amounted to 2.63 µM in the assay with NCI-H226 lung, 7.12 µM with OVCAR-3 ovarian, 14.6 µM in the assay on SN12C renal and 17.4 µM in the assay on SNB-19 CNS.
With `Nc1nc(-c2cc(-c3cccc4ccccc34)nc(N)n2)cc(-c2cccc3ccccc23)n1`, the TGI in the assay on A498 renal, in the assay on A549 NSCLC, in the assay with CCRF-CEM leukemia, with HOP-62 NSCLC, with K-562 leukemia and in the assay on M14 melanoma was greater than 100 µM each time. The TGI with NCI-H226 lung, in the assay with OVCAR-3 ovarian, with SN12C renal and in the assay on SNB-19 CNS was greater than 100 µM throughout.
